Earlier results, collected in patent US20100317664A1, “METHODS OF AFFECTING GASTROINTESTINAL TRANSIT AND GASTRIC EMPTYING, AND COMPOUNDS USEFUL THEREIN” (priority 2007, published 2010).

Experiments:
[1] = system: humans
[2] = system: rats; details: parenteral injection to rats

constipation ([1]; oral administration, high doses (3000 mg/day), humans): causes constipation
SMILES: N[C@@H](Cc1ccc(Cl)cc1)C(=O)O (racemic) [p-chlorophenylalanine]
adverse psychological effects ([1]; in vivo): adverse psychological effects, such as dizziness, nausea and uneasiness | entry into the central nervous system ([1]; in vivo): readily gets into the central nervous system | gastrointestinal motility [2]: decreased their gastrointestinal motility
